From PubChem BioAssay (NCI)
Where “and” joins values, the source holds several entries; their conditions need not be identical. Identical values can stand only once.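 Five compound concentrations were applied to cells in 96-well plates for 48 hours; endpoints were derived by simple linear interpolation of the resulting dose-response curve. Abbreviation: GI50, concentration required for 50% inhibition of growth. TGI: total growth inhibition.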

Experiments:
Assay in all cases: inhibition of tumour cell growth, NCI panel, 48 h
PC-3 prostate = system: PC-3 prostate
MDA-MB-435 = system: MDA-MB-435
HOP-62 NSCLC = system: HOP-62 NSCLC
786-0 renal = system: 786-0 renal
OVCAR-8 ovarian = system: OVCAR-8 ovarian
SNB-75 CNS = system: SNB-75 CNS
OVCAR-5 ovarian = system: OVCAR-5 ovarian
M14 melanoma = system: M14 melanoma
NCI-H522 lung = system: NCI-H522 lung
NCI/ADR-RES ovarian = system: NCI/ADR-RES ovarian

SMILES | GI50 (PC-3 prostate) | TGI (PC-3 prostate) | GI50 (MDA-MB-435) | TGI (MDA-MB-435) | GI50 (HOP-62 NSCLC) | TGI (HOP-62 NSCLC) | GI50 (786-0 renal) | TGI (786-0 renal) | GI50 (OVCAR-8 ovarian) | TGI (OVCAR-8 ovarian) | GI50 (SNB-75 CNS) | TGI (SNB-75 CNS) | GI50 (OVCAR-5 ovarian) | TGI (OVCAR-5 ovarian) | GI50 (M14 melanoma) | TGI (M14 melanoma) | GI50 (NCI-H522 lung) | TGI (NCI-H522 lung) | GI50 (NCI/ADR-RES ovarian) | TGI (NCI/ADR-RES ovarian)
CCn1c(-c2nonc2N)nc2c(C#CC(C)(C)O)ncc(OC[C@H]3CCCNC3)c21 | 10.4 µM | 70.8 µM | 13.7 µM | 30.3 µM | 23.3 µM | 72.7 µM | 0.46 µM | 16 µM | 16.1 µM | 82.2 µM | 0.0584 µM | 1.54 µM | 27.6 µM | 58.4 µM | 14.8 µM | 37.7 µM | 12.2 µM | 33.2 µM | > 100 µM | > 100 µM
COc1cc(-c2csc(NC(=O)Nc3ccc(C(F)(F)F)cc3)n2)cc(OC)c1OC | 1.84 µM | 8.2 µM | 1.71 µM | 3.74 µM | 2.01 µM | 5.07 µM | 1.62 µM | 3.54 µM | 2.97 µM | 10.5 µM | 1.43 µM | 5.52 µM | 2.64 µM | 9.9 µM | 2 µM | 5.1 µM | 1.9 µM | 5.88 µM | 2.12 µM | 6.94 µM
Fc1cccc(-n2ccc(-c3ccccc3)nc2=S)c1 | 17.5 µM | 39.4 µM | 99.7 µM | > 100 µM | > 63.4 µM | > 100 µM | 21.2 µM | 44.1 µM | 26.6 µM | > 57.7 µM | 26.7 µM | > 70.6 µM | > 94.4 µM | > 100 µM | 73 µM | > 100 µM | 22.7 µM | 64.5 µM | 18.3 µM | 41.4 µM
COc1cc2nccc(Oc3ccc(NC(=O)Nc4cc(C)on4)c(Cl)c3)c2cc1OC | 4.74 µM and 5.91 µM | > 100 µM | 2.74 µM and 2.98 µM | > 59.6 µM | 5.58 µM and > 10 µM | > 100 µM | 3.43 µM and 4.11 µM | 23.3 µM and > 10 µM | 3.6 µM and 4.67 µM | > 100 µM | 1.99 µM and 2.06 µM | 6.24 µM and > 10 µM | 4.15 µM and 4.08 µM | 42.9 µM and > 10 µM | 2.55 µM and 3.05 µM | 7.83 µM and > 10 µM | 3.47 µM and 3.14 µM | 32.9 µM and > 10 µM | 3.08 µM and 3.53 µM | > 100 µM
CC(CN(C)C)Oc1ccccc1NC1=C(Cl)C(=O)C(Nc2ccccc2OC(C)CN(C)C)=C(Cl)C1=O (stereo not given) | 1.33 µM | 2.86 µM | 0.753 µM | 2.15 µM | 1.67 µM | 3.07 µM | 0.708 µM | 2.01 µM | 0.337 µM | 1.71 µM | 1.44 µM | 3.01 µM | 0.935 µM | 2.44 µM | 1.38 µM | 2.83 µM | 0.157 µM | 0.337 µM | 1.97 µM | 8.53 µM
Cc1ccc(C(=O)/C(=C\c2ccc([N+](=O)[O-])cc2)S(=O)Cc2ccc(Cl)cc2)cc1 (stereo not given) | 1.56 µM | 3.12 µM | 1.87 µM | 4 µM | 2.39 µM | 6.21 µM | 1.57 µM | 2.97 µM | 2.05 µM | 5.13 µM | 1.53 µM | 3.25 µM | 1.97 µM | 3.91 µM | 1.65 µM | 3.19 µM | 1.72 µM | 3.18 µM | 2.72 µM | 7.97 µM
